Experimental data as given in PubChem BioAssay AID179 (DTP/NCI, 2004).
pEC50, pIC50: −log10 of the molar value. Active and inactive are the calls of the source.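 The calls were made as follows: active = compounds giving half or more protection of infected cells from virus-caused growth loss, again on retest; inactive = the rest.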 Where a SMILES comes first, the peptide text is derived from it. Bridges are numbered along the chain shown (N, C = ends). The star is where a group is joined. Cbz = O=C(OCc1ccccc1)*

Test system: CEM cells HIV-1 protection, formazan growth assay
Assay: NCI AIDS Antiviral Assay
Conditions: for pIC50: measured here: growth of uninfected CEM cells
Method in brief: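 Protection of CEM cells against HIV-1 measured as cell growth via soluble formazan read-out, with five concentrations tested on both infected and uninfected cells; failure to protect may reflect toxicity.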

| Compound | pEC50 | pIC50 | outcome |
| --- | --- | --- | --- |
| O=NNc1ccc(S(=O)(=O)c2ccccc2)cn1 | < 3.70 | < 3.70 | – |
| CCC1(N=[N+]=[N-])C(=O)Nc2cc(C)ccc2C1=O (stereo not given) | < 3.70 | < 4.00 | – |
| Cc1cccc(/C=N/N=C(\N)NO)n1 | < 3.16 | 3.85 | – |
| CC1(C(=O)Nc2ccc3ccccc3c2)CC2(C)CC(C)(C1)C(O)NC2=O (stereo not given) | – | – | inactive |
| COC(=O)C1CCC(=O)NCCCCC(NC(=O)OCc2ccccc2)C(=O)N1 (stereo not drawn) (Cbz-Lys-Glu-OMe; lactam 1-2; configuration not given here) | < 3.70 | < 3.70 | – |
| Cc1nc2ccccn2c1N=Nc1ccc(C(=O)NN)cc1 | < 4.47 | < 4.47 | – |
| Cc1[nH]c2nccn2c(=O)c1CCO | < 3.70 | < 3.70 | – |
| COc1cccc(C=C2C(=O)OC(C)(C)OC2=O)c1 | – | – | inactive |
| COC(=O)C1=Nc2c(C)nn(-c3ccccc3)c2N=C(c2ccccc2)C1 | < 3.70 | < 3.70 | – |
| Cc1cc(C)c2c(=N)c3ccccc3n(CCCCCCO)c2n1 | < 3.70 | 5.86 | – |
| O=[N+]([O-])/C=C(\CS(=O)(=O)c1ccccc1)c1ccc2c(c1)OCO2 | < 4.09 | 4.50 | – |
| O[C@H]1[C@H]2c3cc4c(cc3CN3CCC(C[C@@H]1O)[C@H]23)OCO4 (stereo not given in full) | – | – | inactive |
| CC1(CO)C(=O)OC12CCCCC2 (stereo not given) | < 2.87 | < 2.87 | – |
| O=C(/C=C/C(=O)N/N=C/c1cc(S(=O)(=O)O)c2cccnc2c1O)N/N=C/c1cc(S(=O)(=O)O)c2cccnc2c1O | 3.75 | < 3.70 | – |
| O=C(OCc1ccccc1C1CSCSC1)c1cc(C(=O)OCc2ccccc2C2CSCSC2)c(C(=O)OCc2ccccc2C2CSCSC2)cc1C(=O)OCc1ccccc1C1CSCSC1 | < 5.74 | < 5.74 | – |
| COc1cccc(/C=N\N=C\c2cccc(OC)c2O)c1O | < 3.70 | 4.18 | – |
| CC1=NN2C(=N)/C(=C/c3ccccc3)C(=O)N=C2S1 | < 3.70 | < 3.70 | – |
| Oc1ccc(Nc2nc(Cl)c3[nH]cnc3n2)cc1 | < 3.70 | 3.97 | – |
| O=S(=O)(O)c1cc(O)c(N=NC2S(=O)(=O)OCCOS2(=O)=O)c2ccccc12 | < 3.70 | 4.11 | – |
| O=C(CCc1nnc2s/c(=C\c3ccc(Cl)cc3Cl)c(=O)n12)Nc1cc(Cl)c(Cl)cc1Cl | < 4.88 | < 4.88 | – |
| CCc1cccc(C)c1NC(=O)C1=C(C)NC(C)=C(C(=O)Nc2c(C)cccc2CC)C1c1ccc2c(c1)OCO2 | < 4.61 | < 4.61 | – |

| Compound | pEC50 | pIC50 | outcome |
| --- | --- | --- | --- |
| O=[N+]([O-])CC1CCCCC1O (stereo not given) | < 3.70 | 3.94 | – |
| O=C(Nc1ccc(Cl)cc1C(F)(F)F)C(=O)C1CCCS1(=O)=O (stereo not given) | – | – | inactive |
| CCC1(CC)C(=O)N(C(=O)c2ccc(Cl)cc2)N(C(=O)c2ccccc2Cl)C1=O | < 3.70 | 4.34 | – |
| O=C1CCC(C(Sc2ccccc2)(Sc2ccccc2)Sc2ccccc2)C1 (stereo not given) | < 3.70 | 4.41 | – |
| Brc1ccccc1C1SCc2nc3ncccc3n21 (stereo not given) | < 4.11 | < 4.11 | – |
| C/C=C(\CCC1NCCc2c1[nH]c1ccccc21)[Si](C)(C)C (stereo not given) | – | – | inactive |
| COC(=O)C(Cc1c(C2Nc3ccccc3C2CC(NC(C)=O)C(=O)OC)[nH]c2ccccc12)NC(C)=O (stereo not given) | < 3.70 | < 3.70 | – |
| CC1(C)O[C@@H]2[C@H](O1)C(=O)O[C@@H]2CO | < 3.70 | < 3.70 | – |
| Clc1ccc(CNNCc2cccc(Cl)c2)cc1 | < 3.70 | 3.99 | – |
| CNC(=O)CC1NC(=O)c2csc(n2)-c2ccc(-c3nc(C4=NC(C(=O)N5CCCC5C(N)=O)CO4)cs3)nc2-c2csc(n2)-c2csc(n2)C(C(C)C)NC(=O)CNC(=O)c2csc(n2)C(C(C)C)NC(=O)c2nc1sc2C (stereo not given) | < 5.00 | < 5.00 | – |
| CCCCCCCCCCCCCCCC(=O)Nc1ccn(C2CCC(COP(=O)(O)OCC(COP(=O)(O)OCC3OC(n4cc(C)c(=O)[nH]c4=O)CC3N=[N+]=[N-])OC(=O)CCCCCCCCCCCCCCC)O2)c(=O)n1 (stereo not given) | 7.74 | 4.30 | – |
| COc1ccc(N2C(=O)C3c4[nH]c5ccccc5c4C4CCC(c5ccccc5)CC4C3C2=O)cc1 (stereo not given) | < 4.00 | < 4.00 | – |
| Cn1c(=O)c2[nH]c(=O)c(=O)[nH]c2n(C)c1=O | < 3.70 | < 3.70 | – |
| COc1cc2c(c3c1c(=O)c1ccccc1n3C)C=CC1(CCCC1)O2 | < 3.70 | 4.96 | – |
| O=[N+]([O-])C1(CO)COC2(OC1)c1ccccc1-c1ccccc12 | – | – | inactive |
| Cn1c(O)c(N=O)c(=O)[nH]c1=O | < 3.70 | < 3.70 | – |
| CCCC(O)CNCc1ccc(N(C)C)cc1 (stereo not given) | – | – | inactive |
| Cc1ccc(S(=O)(=O)c2c(C)cc(C)cc2C)cc1 | < 3.70 | 4.90 | – |
| Cc1ccc(OS(=O)(=O)c2ccccc2[N+](=O)[O-])cc1 | – | – | active |
| CC(C)S(=O)(=O)ON1C(=O)c2ccc([N+](=O)[O-])cc2C1=O | < 3.94 | 4.74 | – |
| Cc1ccccc1NP1(=O)OCCCN1Cc1ccc(Cl)c(Cl)c1 (stereo not given) | – | – | inactive |
